Experiments:
[1] = test system: CT26 syngeneic mouse colon fibroblast carcinoma-derived subcutaneous tumor; experiment: CT26 Study 1: mouse CT26 syngeneic tumor model, individual tumor volume; type: in vivo; settings: Compound I-263a 7.5 mg/kg IV Day 1, 4; anti-mPD-1 10 mg/kg IP Day 1, 4, 8, 11; 8 mice/group
Experimental: CT26 Study 1: CT26 is a mouse colon fibroblast carcinoma cell line. CT26 mouse syngeneic tumor model was generated by subcutaneous inoculation with 0.2×10^6 CT-26 cells (cell suspension) in 12 weeks old female BALB/c mice (Jackson Laboratory, 600 Main St, Bar Harbor, ME) in the flank. When the mean tumor volume reached approximately 60 mm^3, the animals were randomized into one vehicle control and three treatment groups (n=8/group). Mice were then dosed with 20% HPbCD or Compound I-263a or anti-mouse PD-1 antibody over a 14-day period. Tumor growth and body weight were measured twice per week during the treatment and post-treatment periods, and mice were humanely euthanized once they had reached their humane endpoint.
Study 1: A 0.825 mg/mL stock solution of Compound I-263a was formulated weekly in 20% HPβCD and administered intravenously (IV) based on exact animal body weight on each day of treatment, using a dosing volume of 10 mL/kg body weight. Final doses received were 7.5 mg/kg. Dosing volume for Compound I-263a was 0.2 mL. […]
Tumors were measured twice weekly using vernier calipers. Tumor volumes were calculated using standard equation: V=W^2×L/2, where V=volume, W=width, and L=length for the tumor. […] Tumor size and body weight were measured twice a week for the duration of the study. […]

[2] = test system: SUMO-activating enzyme and SUMOylation; experiment: inhibition of SUMO-activating enzyme and SUMOylation in cultured tumor cell lines; type: cell-based; settings: cultured mouse and human tumor cell lines
Source text: SAE inhibitors, as disclosed herein, are described, for example, in US 2016/0009744 and U.S. Pat. No. 9,695,154. They may be prepared by methods known to one skilled in the art and/or according to the methods described in US 2016/0009744 and U.S. Pat. No. 9,695,154, which is hereby incorporated by reference in its entirety. Central to the mechanism of action of useful SAE inhibitors, such as Compound I-263a, in combinations and methods of the present disclosure is production of type 1 IFNs and induction of an innate immune response with activation of dendritic cells, natural killer (NK) cells and macrophages.

Cc1sc(C(=O)c2cncnc2N[C@@H]2C[C@H](COS(N)(=O)=O)[C@@H](O)C2)cc1[C@@H]1NCCc2ccc(Cl)cc21 [Compound I-263a, [(1R,2S,4R)-4-{[5-({4-[(1R)-7-chloro-1,2,3,4-tetrahydroisoquinolin-1-yl]-5-methyl-2-thienyl}carbonyl)pyrimidin-4-yl]amino}-2-hydroxycyclopentyl]methyl sulfamate]
tumor growth inhibition relative to vehicle-treated tumors [1]: did not show any tumor growth inhibition | inhibition of SUMO-activating enzyme and SUMOylation [2]: Selective and potent inhibition
